Reference: patent US11927585B2, “Solvent-based inks and coatings for food contact applications” (SUN CHEMICAL CORPORATION, priority 2020, dated 2024)

Key:
[1] = Worst-case calculation, Application 2 cheese packaging wrap exposure scenario; settings: 100% migration, 2.0 g/m^2 dry film
[2] = Worst-case calculation (100% migration), standard EU Cube exposure model; settings: 100% migration; for Worst-case calculation as a percentage of SML (or restriction), EU Cube: 2.0 g/m^2 dry film; for Worst Case Calculation of migration in EU Cube model (as a percentage of SML): dry coat weight 2.0 g/m^2
[3] = Worst-case calculation, Application 1 yoghurt pot lid exposure scenario; settings: 100% migration, 2.0 g/m^2 dry film
[4] = Specific migration limit (SML) from regulation or hazard assessment (TTC, VEGA QSAR, Cramer Class); settings: for SML or Restriction (mg substance/kg food): source HA (internal hazard assessment), self-derived SML, EU Cube model; for SML (or restriction): Source of SML or restriction: HA (internal hazard assessment)
[5] = substance in ink SBDEV976 (Ex. 4C Cyan)

CCCCCCCC/C=C\CCCCCCCC(=O)OCC [0000111-62-6, Ethyl Oleate]
Worst-case calculation as a percentage of SML (or restriction), Application 2 ([1]; product SBDEV976): 34.6 percentage of SML (or restriction)
Worst-case calculation as a percentage of SML (or restriction), Application 2 ([1]; product SBDEV977): 34.6 percentage of SML (or restriction)
Worst-case calculation as a percentage of SML (or restriction), Application 2 ([1]; product SBDEV979): 32.7 percentage of SML (or restriction)
Worst-case calculation as a percentage of SML (or restriction), Application 2 ([1]; product SBDEV980): 34.5 percentage of SML (or restriction)
Worst-case calculation as a percentage of SML (or restriction), Application 2 ([1]; product SBDEV1284): 32.68 percentage of SML (or restriction)
Worst-case calculation as a percentage of SML (or restriction), Application 2 ([1]; product SBDEV1285): 32.68 percentage of SML (or restriction)
Worst-case calculation as a percentage of SML (or restriction), Application 2 ([1]; product SBDEV1286): 32.68 percentage of SML (or restriction)
Worst-case calculation as a percentage of SML (or restriction), Application 2 ([1]; product SBDEV1287): 32.68 percentage of SML (or restriction)
Worst-case calculation as a percentage of SML (or restriction), EU Cube ([2]; product SBDEV976): 24.0 percentage of SML (or restriction)
Worst-case calculation as a percentage of SML (or restriction), EU Cube ([2]; product SBDEV977): 24.0 percentage of SML (or restriction)
Worst-case calculation as a percentage of SML (or restriction), EU Cube ([2]; product SBDEV979): 22.7 percentage of SML (or restriction)
Worst-case calculation as a percentage of SML (or restriction), EU Cube ([2]; product SBDEV980): 24.0 percentage of SML (or restriction)
Worst-case calculation as a percentage of SML (or restriction), EU Cube ([2]; product SBDEV1284): 22.7 percentage of SML (or restriction)
Worst-case calculation as a percentage of SML (or restriction), EU Cube ([2]; product SBDEV1285): 22.7 percentage of SML (or restriction)
Worst-case calculation as a percentage of SML (or restriction), EU Cube ([2]; product SBDEV1286): 22.7 percentage of SML (or restriction)
Worst-case calculation as a percentage of SML (or restriction), EU Cube ([2]; product SBDEV1287): 22.7 percentage of SML (or restriction)
Worst Case Calculation of migration in EU Cube model (as a percentage of SML) [2, 5]: 24.0 percentage of SML
Worst Case Calculation of migration in EU Cube model (as a percentage of SML) ([2]; substance in ink SBDEV977 (Ex. 4A Yellow)): 24 percentage of SML
Worst Case Calculation of migration in EU Cube model (as a percentage of SML) ([2]; substance in ink SBDEV979 (Ex. 4D Black)): 22.2 percentage of SML
Worst Case Calculation of migration in EU Cube model (as a percentage of SML) ([2]; substance in ink SBDEV980 (Ex. 4B Red)): 24.0 percentage of SML
Worst-case calculation as a percentage of SML (or restriction), Application 1 ([3]; product SBDEV976): 9.42 percentage of SML (or restriction)
Worst-case calculation as a percentage of SML (or restriction), Application 1 ([3]; product SBDEV977): 9.42 percentage of SML (or restriction)
Worst-case calculation as a percentage of SML (or restriction), Application 1 ([3]; product SBDEV979): 8.92 percentage of SML (or restriction)
Worst-case calculation as a percentage of SML (or restriction), Application 1 ([3]; product SBDEV980): 9.45 percentage of SML (or restriction)
Worst-case calculation as a percentage of SML (or restriction), Application 1 ([3]; product SBDEV1284): 8.91 percentage of SML (or restriction)
Worst-case calculation as a percentage of SML (or restriction), Application 1 ([3]; product SBDEV1285): 8.91 percentage of SML (or restriction)
Worst-case calculation as a percentage of SML (or restriction), Application 1 ([3]; product SBDEV1286): 8.91 percentage of SML (or restriction)
Worst-case calculation as a percentage of SML (or restriction), Application 1 ([3]; product SBDEV1287): 8.91 percentage of SML (or restriction)
SML or Restriction (mg substance/kg food) [4]: 0.09 mg substance/kg food

CCCOC(CC)OCCC [Propane, 1,1-dipropoxy-]
SML (or restriction) [4]: 0.09 mg substance/kg food

O=Cc1ccc(-c2ccccc2)cc1 [4-Phenylbenzaldehyde]
SML (or restriction) [4]: 0.09 mg substance/kg food

O=C1NCCN1 [2-Imidazolidinone]
SML (or restriction) [4]: 4.98 mg substance/kg food

N#Cc1ccc(-c2ccccc2)cc1 [4-Phenylbenzonitrile]
SML (or restriction) [4]: 0.09 mg substance/kg food

O=C(O)c1ccc(-c2ccccc2)cc1 [4-Phenylbenzoic Acid]
SML (or restriction) [4]: 0.09 mg substance/kg food

O=Cc1ccc(-c2ccccc2)cc1 [0003218-36-8, 4-Phenylbenzaldehyde]
SML or Restriction (mg substance/kg food) [4]: 0.09 mg substance/kg food

CCCCCCCC/C=C\CCCCCCCC(=O)OCC [Ethyl Oleate]
SML (or restriction) [4]: 0.09 mg substance/kg food

CCCC1OC(CCC)OC(CCC)O1 (stereo not drawn) [2,4,6-tripropyl-1,3,5-Trioxane]
SML (or restriction) [4]: 0.09 mg substance/kg food

NC(=O)c1ccc(-c2ccccc2)cc1 [4-Phenylbenzamide]
SML (or restriction) [4]: 0.09 mg substance/kg food

c1ccc2ccccc2c1 [0000091-20-3, Naphthalene]
Worst-case calculation as a percentage of SML (or restriction), Application 2 ([1]; product SBDEV976): 0.6 percentage of SML (or restriction)
Worst-case calculation as a percentage of SML (or restriction), Application 2 ([1]; product SBDEV1286): 0.6 percentage of SML (or restriction)
Worst-case calculation as a percentage of SML (or restriction), EU Cube ([2]; product SBDEV976): 0.4 percentage of SML (or restriction)
Worst-case calculation as a percentage of SML (or restriction), EU Cube ([2]; product SBDEV1286): 0.4 percentage of SML (or restriction)
Worst Case Calculation of migration in EU Cube model (as a percentage of SML) [2, 5]: 0.4 percentage of SML
Worst-case calculation as a percentage of SML (or restriction), Application 1 ([3]; product SBDEV976): 0.2 percentage of SML (or restriction)
Worst-case calculation as a percentage of SML (or restriction), Application 1 ([3]; product SBDEV1286): 0.2 percentage of SML (or restriction)
